Test results from patent publication US7045343B2, “Sterilization indicator test packs” (3M Innovative Properties Company, priority 1998, dated 2006).

Legend:
[1] = system: enzyme associated with Bacillus stearothermophilus spores; assay: Rapid enzyme fluorescence readout of indicators after hydrogen peroxide plasma sterilization; assay type: biochemical; settings: for FLUORESCENCE - PERCENT POSITIVE 1 HR / FLUORESCENCE - PERCENT POSITIVE 2 HR / FLUORESCENCE - PERCENT POSITIVE 3 HR / FLUORESCENCE - PERCENT POSITIVE 4 HR / FLUORESCENCE - PERCENT POSITIVE 5 HR: 1–22 min diffusion;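 on FLUORESCENCE - PERCENT POSITIVE 5 HR: percent of growth-positive indicators that were also fluorescence-positive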
Procedure: (§1) Sterilization indicators for Examples 6–9 were prepared as described above with the exception that closure member 22 of the sterilization indicator was constructed of TYVEK™ high-density polyethylene fiber material, commercially available from E.I. du Pont de Nemours and Co., Wilmington, Del.
(§2) Sterilization indicators were made as described above with spores that had been coated with each of the chemicals and concentrations listed in Table 6. The indicators were placed in instrument trays and exposed to a hydrogen peroxide plasma sterilization procedure at 45–55° C. in a STERRAD™ 100SI GMP Sterilizer, obtained from Advanced Sterilization Products Co., Irvine, Calif. During the sterilization procedure a vacuum was drawn in the sterilization chamber for 5–6 minutes until the pressure was reduced to 300 mTorr. A 1.8 ml aliquot of an aqueous solution of 58–60% hydrogen peroxide was then injected into the sterilization chamber over a period of about 6 minutes, yielding an empty chamber concentration of […] hydrogen peroxide, and hydrogen peroxide vapor was allowed to diffuse throughout the chamber for 1–22 minutes at 6–10 Torr. A vacuum was then drawn, reducing the pressure to 500 mTorr and removing all detectable hydrogen peroxide vapor from the chamber.
(§3) After exposure to the sterilization procedure, the indicators were removed from the sterilizer and the inner containers containing the enzyme substrate and nutrient medium were crushed. The indicators were then incubated at 60° C. and examined for fluorescence every hour for 5 hours using a 3M™ ATTEST™ Model 190 Rapid Autoreader, commercially available from 3M Company, St. Paul, Minn. Additionally, spore growth, as indicated by a color change from purple to yellow, was determined visually after 168 hours of incubation.
(§4) The number of growth positive indicators detected after 168 hours of incubation is recorded in Table 6.
as §2, with “7.” for “6.”
as §2, with “8.” for “6.”, “chamber. […]” for “chamber.”

[2] = system: Bacillus stearothermophilus spores; assay: Spore outgrowth (color change) of indicators after hydrogen peroxide plasma sterilization; assay type: cell-based; settings: 1–22 min diffusion
Procedure: as §1, §2, §3, §4
as §2, with “7.” for “6.”
as §2, with “8.” for “6.”, “chamber. […]” for “chamber.”

[3] = system: enzyme associated with Bacillus stearothermophilus spores; assay: Rapid enzyme fluorescence readout of dual rapid readout indicators after prevacuum steam sterilization; assay type: biochemical; settings: Example 5, 4-pulse prevacuum steam 121° C., 7–13 min
Method in brief: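 Bacillus stearothermophilus ATCC 7953 spores were coated with a sterilant-resistant chemical solution and pipetted onto paper strips at about 1×10^6 spores per strip. Each strip sat in a dual rapid readout indicator beside a crushable inner container of nutrient medium holding 4-methylumbelliferyl-alpha-D-glucoside at pH 7.6. Indicators went through a 4-pulse prevacuum steam cycle at 121° C, were activated, incubated at 60° C, and read for fluorescence on a 3M ATTEST Model 190 Rapid Autoreader.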

[4] = system: Bacillus stearothermophilus spores; assay: Spore outgrowth (color change) of indicators after prevacuum steam sterilization; assay type: cell-based; settings: Example 5, 4-pulse prevacuum steam 121° C., 7–13 min
Method in brief: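 Bacillus stearothermophilus ATCC 7953 spores were cleaned, mixed into a heated sterilant-resistant coating chemical solution and pipetted onto paper strips at about 1×10^6 spores per strip. The strips were dried and placed in indicators, then exposed to a 4-pulse prevacuum steam cycle at 121° C. After exposure the media ampoule was crushed, and growth was judged visually as a purple-to-yellow color change after 168 hours at 60° C.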

Substance: Hexaglyn Di-Stearate
- accuracy of sterilization indicators compared to indicators made with untreated spores ([1]; 1–3 hours after exposure): improved
- FLUORESCENCE - PERCENT POSITIVE 1 HR ([1]; Example 8, 25 mg/ml coating): 100%
- FLUORESCENCE - PERCENT POSITIVE 2 HR ([1]; Example 8, 25 mg/ml coating): 100%
- FLUORESCENCE - PERCENT POSITIVE 3 HR ([1]; Example 8, 25 mg/ml coating): 100%
- FLUORESCENCE - PERCENT POSITIVE 4 HR ([1]; Example 8, 25 mg/ml coating): 100%
- FLUORESCENCE - PERCENT POSITIVE 5 HR ([1]; Example 8, 25 mg/ml coating): 100%
- FLUORESCENCE - PERCENT POSITIVE 1 HR ([1]; Example 8, 50 mg/ml coating): 100%
- FLUORESCENCE - PERCENT POSITIVE 2 HR ([1]; Example 8, 50 mg/ml coating): 100%
- FLUORESCENCE - PERCENT POSITIVE 3 HR ([1]; Example 8, 50 mg/ml coating): 100%
- FLUORESCENCE - PERCENT POSITIVE 4 HR ([1]; Example 8, 50 mg/ml coating): 100%
- FLUORESCENCE - PERCENT POSITIVE 5 HR ([1]; Example 8, 50 mg/ml coating): 100%
- FLUORESCENCE - PERCENT POSITIVE 1 HR ([1]; Example 8, 100 mg/ml coating): 100%
- FLUORESCENCE - PERCENT POSITIVE 2 HR ([1]; Example 8, 100 mg/ml coating): 100%
- FLUORESCENCE - PERCENT POSITIVE 3 HR ([1]; Example 8, 100 mg/ml coating): 100%
- FLUORESCENCE - PERCENT POSITIVE 4 HR ([1]; Example 8, 100 mg/ml coating): 100%
- FLUORESCENCE - PERCENT POSITIVE 5 HR ([1]; Example 8, 100 mg/ml coating): 100%
- NO. GROWTH POSITIVE 168 HR ([2]; Example 8, 25 mg/ml coating): 16
- NO. GROWTH POSITIVE 168 HR ([2]; Example 8, 50 mg/ml coating): 16
- NO. GROWTH POSITIVE 168 HR ([2]; Example 8, 100 mg/ml coating): 16

Substance: Sodium POE(8) Oleyl Ether Phosphate
- FLUORESCENCE - PERCENT POSITIVE 1 HR ([3]; 50 mg/ml coating): 0%
- FLUORESCENCE - PERCENT POSITIVE 2 HR ([3]; 50 mg/ml coating): 0%
- FLUORESCENCE - PERCENT POSITIVE 3 HR ([3]; 50 mg/ml coating): 0%
- FLUORESCENCE - PERCENT POSITIVE 4 HR ([3]; 50 mg/ml coating): 0%
- FLUORESCENCE - PERCENT POSITIVE 1 HR ([3]; 100 mg/ml coating): 0%
- FLUORESCENCE - PERCENT POSITIVE 2 HR ([3]; 100 mg/ml coating): 0%
- FLUORESCENCE - PERCENT POSITIVE 3 HR ([3]; 100 mg/ml coating): 0%
- FLUORESCENCE - PERCENT POSITIVE 4 HR ([3]; 100 mg/ml coating): 0%
- FLUORESCENCE - PERCENT POSITIVE 1 HR ([1]; Example 8, 50 mg/ml coating): 0%
- FLUORESCENCE - PERCENT POSITIVE 2 HR ([1]; Example 8, 50 mg/ml coating): 0%
- FLUORESCENCE - PERCENT POSITIVE 3 HR ([1]; Example 8, 50 mg/ml coating): 0%
- FLUORESCENCE - PERCENT POSITIVE 4 HR ([1]; Example 8, 50 mg/ml coating): 0%
- FLUORESCENCE - PERCENT POSITIVE 5 HR ([1]; Example 8, 50 mg/ml coating): 0%
- FLUORESCENCE - PERCENT POSITIVE 1 HR ([1]; Example 8, 100 mg/ml coating): 0%
- FLUORESCENCE - PERCENT POSITIVE 2 HR ([1]; Example 8, 100 mg/ml coating): 0%
- FLUORESCENCE - PERCENT POSITIVE 3 HR ([1]; Example 8, 100 mg/ml coating): 0%
- FLUORESCENCE - PERCENT POSITIVE 4 HR ([1]; Example 8, 100 mg/ml coating): 0%
- FLUORESCENCE - PERCENT POSITIVE 5 HR ([1]; Example 8, 100 mg/ml coating): 0%
- NO. GROWTH POSITIVE 168 HR ([2]; Example 8, 50 mg/ml coating): 0
- NO. GROWTH POSITIVE 168 HR ([2]; Example 8, 100 mg/ml coating): 0
- NO. GROWTH POSITIVE 168 HR ([4]; 50 mg/ml coating): 6
- NO. GROWTH POSITIVE 168 HR ([4]; 100 mg/ml coating): 3

Substance: polyoxyethylene (60) glycerol monostearate [POE(60) Glycerol Monostearate]
- accuracy of sterilization indicators compared to indicators made with untreated spores ([1]; 2–3 hours after exposure): improved
- FLUORESCENCE - PERCENT POSITIVE 1 HR ([1]; Example 7, 50 mg/ml coating): 100%
- FLUORESCENCE - PERCENT POSITIVE 2 HR ([1]; Example 7, 50 mg/ml coating): 100%
- FLUORESCENCE - PERCENT POSITIVE 3 HR ([1]; Example 7, 50 mg/ml coating): 100%
- FLUORESCENCE - PERCENT POSITIVE 4 HR ([1]; Example 7, 50 mg/ml coating): 100%
- FLUORESCENCE - PERCENT POSITIVE 5 HR ([1]; Example 7, 50 mg/ml coating): 100%
- FLUORESCENCE - PERCENT POSITIVE 1 HR ([1]; Example 7, 100 mg/ml coating): 57.1%
- FLUORESCENCE - PERCENT POSITIVE 2 HR ([1]; Example 7, 100 mg/ml coating): 57.1%
- FLUORESCENCE - PERCENT POSITIVE 3 HR ([1]; Example 7, 100 mg/ml coating): 71.4%
- FLUORESCENCE - PERCENT POSITIVE 4 HR ([1]; Example 7, 100 mg/ml coating): 71.4%
- FLUORESCENCE - PERCENT POSITIVE 5 HR ([1]; Example 7, 100 mg/ml coating): 71.4%
- NO. GROWTH POSITIVE 168 HR ([2]; Example 7, 50 mg/ml coating): 7
- NO. GROWTH POSITIVE 168 HR ([2]; Example 7, 100 mg/ml coating): 7

Substance: Alkyl Polyglucoside
- FLUORESCENCE - PERCENT POSITIVE 1 HR ([1]; Example 8, 20 mg/ml coating): 0%
- FLUORESCENCE - PERCENT POSITIVE 2 HR ([1]; Example 8, 20 mg/ml coating): 0%
- FLUORESCENCE - PERCENT POSITIVE 3 HR ([1]; Example 8, 20 mg/ml coating): 0%
- FLUORESCENCE - PERCENT POSITIVE 4 HR ([1]; Example 8, 20 mg/ml coating): 0%
- FLUORESCENCE - PERCENT POSITIVE 5 HR ([1]; Example 8, 20 mg/ml coating): 0%
- FLUORESCENCE - PERCENT POSITIVE 1 HR ([1]; Example 8, 40 mg/ml coating): 0%
- FLUORESCENCE - PERCENT POSITIVE 2 HR ([1]; Example 8, 40 mg/ml coating): 0%
- FLUORESCENCE - PERCENT POSITIVE 3 HR ([1]; Example 8, 40 mg/ml coating): 0%
- FLUORESCENCE - PERCENT POSITIVE 4 HR ([1]; Example 8, 40 mg/ml coating): 0%
- FLUORESCENCE - PERCENT POSITIVE 5 HR ([1]; Example 8, 40 mg/ml coating): 0%
- NO. GROWTH POSITIVE 168 HR ([2]; Example 8, 20 mg/ml coating): 5
- NO. GROWTH POSITIVE 168 HR ([2]; Example 8, 40 mg/ml coating): 1
